In brackets after ≈: the same amount, converted by molar mass.
Tested on: KB
Test: Cytotoxicity against human KB cells
Details: read-out: ED50

Row | SMILES | EC50
1 | CO[C@H]1[C@H](O[C@H]2CC[C@]3(C=O)[C@H]4CC[C@]5(C)[C@@H](C6=CC(=O)OC6)CC[C@]5(O)[C@@H]4CC[C@]3(O)C2)O[C@H](C)[C@@H](O)[C@@H]1OC [MANSONIN] | 0.042 µg/mL (≈ 0.0726 µM)
2 | CO[C@H]1[C@H](O[C@H]2CC[C@]3(C=O)[C@H]4CC[C@]5(C)[C@@H](C6=CC(=O)OC6)CC[C@]5(O)[C@@H]4CC[C@]3(O)C2)O[C@H](C)[C@H](O)[C@@H]1OC [STREBLOSIDE] | 0.035 µg/mL (≈ 0.0605 µM)

Reference: ChEMBL document CHEMBL1151665, “Plant anticancer agents, XLI. Cardiac glycosides from Streblus asper” (1985)
